From ChEMBL document CHEMBL3352001, “2,4-Dialkyl-8,9,10,11-tetrahydrobenzo[g]pyrimido[4,5-c]isoquinoline-1,3,7,12(2H,4H)-tetraones as new leads against Mycobacterium tuberculosis” (Eur J Med Chem, 2014)
In brackets after ≈: the same amount, converted by molar mass. Several values for one entry are separate records, joined by “and”; a condition that tells them apart may be missing. Identical values can stand only once. Activity calls are given as the source filed them. The calls are words filed in the database; no cut-off is given here.

Legend:
[1] = system: Mycobacterium tuberculosis; experiment: Antimycobacterial activity against Mycobacterium tuberculosis H37Rv transformed with pSMT1 luciferase reporter plasmid assessed as growth inhibition after 6 days by luminometry; type: functional; details: for GI50: Mycobacterium tuberculosis, H37Rv, 144 h
[2] = system: Mycobacterium tuberculosis; experiment: Antimicrobial activity against multi-drug resistant Mycobacterium tuberculosis LAM-1 strain clinical isolate assessed as critical concentration to induce 99% growth reduction at 10 to 20 ug/mL by BACTEC_MGIT_960-TB detection system; type: functional
[3] = system: Mycobacterium tuberculosis; experiment: Antimicrobial activity against multi-drug resistant Mycobacterium tuberculosis LAM-1 strain clinical isolate assessed as growth reduction at 0.1 ug/mL by BACTEC_MGIT_960-TB detection system; type: functional, organism-based
[4] = system: Mycobacterium tuberculosis; experiment: Antimicrobial activity against multi-drug resistant Mycobacterium tuberculosis LAM-1 strain clinical isolate assessed as growth reduction by BACTEC_MGIT_960-TB detection system; type: functional

Which GI90 [1] does the source give for `CCCCCCCn1c(=O)c2c3c(cnc2n(CCCCCCC)c1=O)C(=O)C1=C(C3=O)C2CCC1CC2` here?
The GI90 was 3.78 µg/mL (≈ 7.27 µM).

And the GI99 [1]?
The GI99 was 6.89 µg/mL.

What about the GI50 [1] of the same molecule?
The GI50 was 1.32 µg/mL (≈ 2.54 µM).

What about the INH [2] of the same molecule?
Its INH is 10 µg/mL.

With `NNC(=O)c1ccncc1` [ISONIAZID] as the molecule, how does the GI99 [1] read?
The GI99 was 0.04 µg/mL and 0.06 µg/mL.

And the GI50 [1]?
The GI50 was 0.01 µg/mL (≈ 0.0729 µM).

What about the inhibition [3] of the same molecule?
Its inhibition is “inactive”.

Which results are given for `CCCn1c(=O)c2c3c(cnc2n(CCC)c1=O)C(=O)C1=C(C3=O)C2CCC1C2` (stereo not drawn)?
GI90 [1]: 4.28 µg/mL (≈ 10.9 µM); GI99 [1]: 6.23 µg/mL; GI50 [1]: 1.73 µg/mL (≈ 4.4 µM)

With `CCCCn1c(=O)c2c3c(cnc2n(CCCC)c1=O)C(=O)C1=C(C3=O)C2CCC1C2` (stereo not drawn) as the molecule, how does the GI90 [1] read?
The GI90 was 4.59 µg/mL (≈ 10.9 µM).

What about the GI99 [1] of the same molecule?
Its GI99 is 7.23 µg/mL.

What about the GI50 [1] of the same molecule?
The GI50 was 1.46 µg/mL (≈ 3.46 µM).

What does the source list for `CCCCCCCn1c(=O)c2c3c(cnc2n(CCCCCCC)c1=O)C(=O)C1=C(C3=O)C2CCC1C2` (stereo not drawn)?
GI90 [1]: 2.45 µg/mL (≈ 4.85 µM); GI99 [1]: 5.57 µg/mL; GI50 [1]: 0.63 µg/mL (≈ 1.25 µM); INH [2]: 10 µg/mL

With `CC(C)CCn1c(=O)c2c3c(cnc2n(CCC(C)C)c1=O)C(=O)C1=C(C3=O)C2CCC1CC2` as the molecule, how does the GI90 [1] read?
The GI90 was 10.33 µg/mL (≈ 22.3 µM).

What about the GI99 [1] of the same molecule?
Its GI99 is 22.88 µg/mL.

What about the GI50 [1] of the same molecule?
The GI50 was 4.9 µg/mL (≈ 10.6 µM).

With `CCn1c(=O)c2c3c(cnc2n(CC)c1=O)C(=O)C1=C(C3=O)C2CCC1C2` (stereo not drawn) as the molecule, how does the GI90 [1] read?
Its GI90 is 5.32 µg/mL (≈ 14.6 µM).

What about the GI99 [1] of the same molecule?
Its GI99 is 9.21 µg/mL.

And the GI50 [1]?
The GI50 was 1.69 µg/mL (≈ 4.63 µM).

With `Cn1c(=O)c2c3c(cnc2n(C)c1=O)C(=O)C1=C(C3=O)C2CCC1CC2` as the molecule, how does the GI90 [1] read?
Its GI90 is 6.98 µg/mL (≈ 19.9 µM).

And the GI99 [1]?
The GI99 was 15.43 µg/mL.

What about the GI50 [1] of the same molecule?
Its GI50 is 2.83 µg/mL (≈ 8.05 µM).

Which GI90 [1] does the source give for `CC(C)n1c(=O)c2c3c(cnc2n(C(C)C)c1=O)C(=O)C1=C(C3=O)C2CCC1C2` (stereo not drawn) here?
Its GI90 is 1.5 µg/mL (≈ 3.81 µM).

And the GI99 [1]?
The GI99 was 3 µg/mL.

What about the GI50 [1] of the same molecule?
The GI50 was 0.52 µg/mL (≈ 1.32 µM).

What about the INH [2] of the same molecule?
The INH was 5 µg/mL.

And the MIC [4]?
Its MIC is 5 µg/mL (≈ 12.7 µM).

For `Cn1c(=O)c2c3c(cnc2n(C)c1=O)C(=O)C1=C(C3=O)C2CCC1C2` (stereo not drawn), which GI90 [1] is on record?
The GI90 was 5.87 µg/mL (≈ 17.4 µM).

And the GI99 [1]?
Its GI99 is 10.43 µg/mL.

And the GI50 [1]?
Its GI50 is 1.58 µg/mL (≈ 4.68 µM).

`CCCCCn1c(=O)c2c3c(cnc2n(CCCCC)c1=O)C(=O)C1=C(C3=O)C2CCC1CC2` was tested. Which GI90 [1] did it give?
Its GI90 is 4.78 µg/mL (≈ 10.3 µM).

And the GI99 [1]?
Its GI99 is 13.37 µg/mL.

What about the GI50 [1] of the same molecule?
The GI50 was 1.49 µg/mL (≈ 3.21 µM).

What does the source list for `CCCn1c(=O)c2c3c(cnc2n(CCC)c1=O)C(=O)C1=C(C3=O)C2CCC1CC2`?
GI90 [1]: 5.98 µg/mL (≈ 14.7 µM); GI99 [1]: 7.34 µg/mL; GI50 [1]: 2.59 µg/mL (≈ 6.36 µM)

How did the GI90 [1] turn out when `CCCCCn1c(=O)c2c3c(cnc2n(CCCCC)c1=O)C(=O)C1=C(C3=O)C2CCC1C2` (stereo not drawn) was run?
The GI90 was 4.09 µg/mL (≈ 9.1 µM).

What about the GI99 [1] of the same molecule?
The GI99 was 9.54 µg/mL.

And the GI50 [1]?
The GI50 was 1.26 µg/mL (≈ 2.8 µM).

How did the GI90 [1] turn out when `CC(C)n1c(=O)c2c3c(cnc2n(C(C)C)c1=O)C(=O)C1=C(C3=O)C2CCC1CC2` was run?
Its GI90 is 2.32 µg/mL (≈ 5.69 µM).

What about the GI99 [1] of the same molecule?
Its GI99 is 4.89 µg/mL.

What about the GI50 [1] of the same molecule?
The GI50 was 0.73 µg/mL (≈ 1.79 µM).

And the INH [2]?
Its INH is 10 µg/mL.

What does the source list for `CC(C)CCn1c(=O)c2c3c(cnc2n(CCC(C)C)c1=O)C(=O)C1=C(C3=O)C2CCC1C2` (stereo not drawn)?
GI90 [1]: 8.11 µg/mL (≈ 18 µM); GI99 [1]: 16.32 µg/mL; GI50 [1]: 2.41 µg/mL (≈ 5.36 µM)

With `CCCCCCn1c(=O)c2c3c(cnc2n(CCCCCC)c1=O)C(=O)C1=C(C3=O)C2CCC1C2` (stereo not drawn) as the molecule, how does the GI90 [1] read?
The GI90 was 5.43 µg/mL (≈ 11.4 µM).

What about the GI99 [1] of the same molecule?
The GI99 was 11.6 µg/mL.

What about the GI50 [1] of the same molecule?
The GI50 was 1.22 µg/mL (≈ 2.55 µM).

For `CC(C)C1CCc2ncc3c(c2C1=O)C(=O)C1=C(C3=O)C2CCC1C2` (stereo not drawn), which GI90 [1] is on record?
Its GI90 is 39.2 µg/mL (≈ 117 µM).

What about the GI99 [1] of the same molecule?
The GI99 was greater than 100 µg/mL.

What about the GI50 [1] of the same molecule?
The GI50 was 20.4 µg/mL (≈ 60.8 µM).

Which GI90 [1] does the source give for `CC(C)Cn1c(=O)c2c3c(cnc2n(CC(C)C)c1=O)C(=O)C1=C(C3=O)C2CCC1CC2` here?
The GI90 was 9.31 µg/mL (≈ 21.4 µM).

And the GI99 [1]?
The GI99 was 12.28 µg/mL.

What about the GI50 [1] of the same molecule?
The GI50 was 4.36 µg/mL (≈ 10 µM).

With `CCn1c(=O)c2c3c(cnc2n(CC)c1=O)C(=O)C1=C(C3=O)C2CCC1CC2` as the molecule, how does the GI90 [1] read?
The GI90 was 4.33 µg/mL (≈ 11.4 µM).

What about the GI99 [1] of the same molecule?
The GI99 was 12.06 µg/mL.

What about the GI50 [1] of the same molecule?
The GI50 was 2.55 µg/mL (≈ 6.72 µM).

How did the GI90 [1] turn out when `CCCCCCn1c(=O)c2c3c(cnc2n(CCCCCC)c1=O)C(=O)C1=C(C3=O)C2CCC1CC2` was run?
Its GI90 is 6.13 µg/mL (≈ 12.5 µM).

And the GI99 [1]?
Its GI99 is 14.89 µg/mL.

What about the GI50 [1] of the same molecule?
Its GI50 is 1.36 µg/mL (≈ 2.77 µM).

`CCCCn1c(=O)c2c3c(cnc2n(CCCC)c1=O)C(=O)C1=C(C3=O)C2CCC1CC2` was tested. Which GI90 [1] did it give?
Its GI90 is 5.2 µg/mL (≈ 11.9 µM).

And the GI99 [1]?
Its GI99 is 9.6 µg/mL.

And the GI50 [1]?
Its GI50 is 1.84 µg/mL (≈ 4.22 µM).

For `CC(C)Cn1c(=O)c2c3c(cnc2n(CC(C)C)c1=O)C(=O)C1=C(C3=O)C2CCC1C2` (stereo not drawn), which GI90 [1] is on record?
Its GI90 is 5.3 µg/mL (≈ 12.6 µM).

What about the GI99 [1] of the same molecule?
Its GI99 is 11.01 µg/mL.

And the GI50 [1]?
Its GI50 is 2.08 µg/mL (≈ 4.93 µM).

Which results are given for `CC(C)C1CCC(=O)c2c1ncc1c2C(=O)C2=C(C1=O)C1CCC2C1` (stereo not drawn)?
GI99 [1]: 24.66 µg/mL and 48.06 µg/mL; GI50 [1]: 5.55 µg/mL (≈ 16.5 µM)
